Source: ChEMBL document CHEMBL4665775, “Half-life extension of peptidic APJ agonists by N-terminal lipid conjugation” (Bioorg Med Chem Lett, 2020)

Assays:
[1] = Tmax in Sprague-Dawley rat at 0.5 mg/kg, sc administered as single dose and measured up to 48 hrs; format: ADME, organism-based; settings: in vivo
[2] = AUC (0 to t) in Sprague-Dawley rat at 0.1 mg/kg, iv administered as single dose and measured up 48 hrs; format: ADME, organism-based; design: dose 0.1 mg/kg, time <=48; settings: in vivo
[3] = Unbound Cmax in Sprague-Dawley rat at 0.5 mg/kg, sc administered as single dose and measured up to 48 hrs; format: ADME, organism-based; settings: in vivo
[4] = Half life in Sprague-Dawley rat at 0.5 mg/kg, sc administered as single dose and measured up to 48 hrs; format: ADME, organism-based; settings: in vivo
Apelin receptor = biological target: T1, Apelin receptor (Rattus norvegicus, UniProt Q9JHG3); test: Agonist activity at rat APJ receptor stably expressed in CHO cell membranes in presence of [35S]GTPgammaS by scintillation proximity assay; format: functional
T1 sequence (Q9JHG3 whole entry): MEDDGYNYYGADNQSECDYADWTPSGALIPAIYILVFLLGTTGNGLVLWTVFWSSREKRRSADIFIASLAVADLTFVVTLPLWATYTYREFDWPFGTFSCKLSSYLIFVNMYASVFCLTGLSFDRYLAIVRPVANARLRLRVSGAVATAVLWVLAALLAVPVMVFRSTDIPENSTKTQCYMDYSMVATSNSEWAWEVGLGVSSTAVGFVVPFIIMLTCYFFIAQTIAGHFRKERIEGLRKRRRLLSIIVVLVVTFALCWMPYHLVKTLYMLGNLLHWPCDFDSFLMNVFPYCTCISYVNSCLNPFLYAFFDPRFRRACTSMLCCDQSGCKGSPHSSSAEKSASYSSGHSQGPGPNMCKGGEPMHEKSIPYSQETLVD

[5] = Plasma protein binding in rat assessed as unbound fraction by LC-MS/MS analysis; format: ADME, cell-free
[6] = Stability in rat liver S9 fraction assessed as compound remaining at 4 hrs; format: ADME, subcellular; settings: read-out: Stabilty
[7] = Clearance in Sprague-Dawley rat at 0.1 mg/kg, iv administered as single dose and measured up to 48 hrs; format: ADME, organism-based; settings: in vivo
[8] = Unbound clearance in Sprague-Dawley rat at 0.1 mg/kg, iv administered as single dose and measured up to 48 hrs; format: ADME, organism-based; settings: in vivo
[9] = Stability in rat plasma assessed as compound remaining at 4 hrs; format: ADME, cell-free; settings: read-out: Stabilty
[10] = Volume of distribution at steady state in Sprague-Dawley rat at 0.1 mg/kg, iv administered as single dose and measured up to 48 hrs; format: ADME, organism-based; settings: in vivo, read-out: Vdss
[11] = Bioavailability in Sprague-Dawley rat at 0.5 mg/kg, sc administered as single dose and measured up to 48 hrs; format: ADME, organism-based; settings: in vivo
[12] = Half life in Sprague-Dawley rat at 0.1 mg/kg, iv administered as single dose and measured up to 48 hrs; format: ADME, organism-based; settings: in vivo
[13] = Stability in rat Kidney S9 fraction assessed as compound remaining at 4 hrs; format: ADME, subcellular; settings: read-out: Stabilty
[14] = AUC (0 to t) in Sprague-Dawley rat at 0.5 mg/kg, sc administered as single dose and measured up to 48 hrs; format: ADME, organism-based; design: route subcutaneous, dose 0.5 mg/kg, time <=48; settings: in vivo

Row | Tmax [1] | AUC(0-t) at 48 h [2] | fCmax [3] | half-life [4] | EC50 (Apelin receptor) | fraction unbound [5] | remaining at 4 h [6] | clearance [7] | CL free [8] | remaining at 4 h [9] | Vd [10] | bioavailability [11] | half-life [12] | remaining at 4 h [13] | AUC(0-t) at 48 h [14] | SMILES
1 | 8 h | 0.426 µM·h | 0.07 nM | 378 min | 4.39 nM | 0.0021 | 66% | 1.35 mL/min/kg | 39 L/h/kg | > 90% | 0.074 L/kg | 24% | 110 min | 84% | 0.404 µM·h | CCCCCCCCCCCCCCC(=O)N[C@@H](CCC(=O)NCCOCCOCC(=O)NCCOCCOCC(=O)N[C@@H](CCCCNC(=N)N)C(=O)N[C@H](CCCNC(=N)N)C(=O)N[C@@H](CCC(N)=O)C(=O)N[C@@H](CCCCNC(=N)N)C(=O)N1CCC[C@H]1C(=O)N[C@H](CCCNC(=N)N)C(=O)N(C)[C@@H](CC(C)C)C(=O)N[C@@H](CO)C(=O)N[C@@H](Cc1c[nH]cn1)C(=O)N[C@@H](CCCCN)C(=O)NCC(=O)N1[C@H](C(=O)N[C@@H](Cc2ccc(I)cc2)C(=O)N2CCC[C@H]2C(=O)N[C@H](Cc2ccc(-c3ccccc3)cc2)C(=O)O)C[C@@H]2CCCC[C@@H]21)C(=O)O
2 | 6 h | 0.269 µM·h | 0.06 nM | 612 min | 6.22 nM | 0.0022 | 45% | 2.18 mL/min/kg | 60 L/h/kg | > 90% | 0.231 L/kg | 33% | 204 min | 86% | 0.349 µM·h | CCCCCCCCCCCCC(=O)N[C@@H](CCC(=O)NCCOCCOCC(=O)NCCOCCOCC(=O)N[C@@H](CCCCNC(=N)N)C(=O)N[C@H](CCCNC(=N)N)C(=O)N[C@@H](CCC(N)=O)C(=O)N[C@@H](CCCCNC(=N)N)C(=O)N1CCC[C@H]1C(=O)N[C@H](CCCNC(=N)N)C(=O)N(C)[C@@H](CC(C)C)C(=O)N[C@@H](CO)C(=O)N[C@@H](Cc1c[nH]cn1)C(=O)N[C@@H](CCCCN)C(=O)NCC(=O)N1[C@H](C(=O)N[C@@H](Cc2ccc(I)cc2)C(=O)N2CCC[C@H]2C(=O)N[C@H](Cc2ccc(-c3ccccc3)cc2)C(=O)O)C[C@@H]2CCCC[C@@H]21)C(=O)O
3 | 12 h | 0.465 µM·h | 0.27 nM | 618 min | 7.42 nM | 0.0064 | 68% | 1.23 mL/min/kg | 12 L/h/kg | 79% | 0.092 L/kg | 36% | 131 min | 83% | 0.753 µM·h | CCCCCCCCCCCCCCCCC(=O)N[C@@H](CCC(=O)NCCOCCOCC(=O)NCCOCCOCC(=O)N[C@@H](CCCCNC(=N)N)C(=O)N[C@H](CCCNC(=N)N)C(=O)N[C@@H](CCC(N)=O)C(=O)N[C@@H](CCCCNC(=N)N)C(=O)N1CCC[C@H]1C(=O)N[C@H](CCCNC(=N)N)C(=O)N(C)[C@@H](CC(C)C)C(=O)N[C@@H](CO)C(=O)N[C@@H](Cc1c[nH]cn1)C(=O)N[C@@H](CCCCN)C(=O)NCC(=O)N1[C@H](C(=O)N[C@@H](Cc2ccc(I)cc2)C(=O)N2CCC[C@H]2C(=O)N[C@H](Cc2ccc(-c3ccccc3)cc2)C(=O)O)C[C@@H]2CCCC[C@@H]21)C(=O)O

The remaining lines, values behind:

Row | SMILES | Tmax [1] | AUC(0-t) at 48 h [2] | fCmax [3] | half-life [4] | EC50 (Apelin receptor) | fraction unbound [5] | remaining at 4 h [6] | clearance [7] | CL free [8] | remaining at 4 h [9] | Vd [10] | bioavailability [11] | half-life [12] | remaining at 4 h [13] | AUC(0-t) at 48 h [14]
4 | CC(C)C[C@@H](C(=O)N[C@@H](CO)C(=O)N[C@@H](Cc1c[nH]cn1)C(=O)N[C@@H](CCCCN)C(=O)NCC(=O)N1[C@H](C(=O)N[C@@H](Cc2ccc(I)cc2)C(=O)N2CCC[C@H]2C(=O)N[C@H](Cc2ccc(-c3ccccc3)cc2)C(=O)O)C[C@@H]2CCCC[C@@H]21)N(C)C(=O)[C@@H](CCCNC(=N)N)NC(=O)[C@@H]1CCCN1C(=O)[C@H](CCCCNC(=N)N)NC(=O)[C@H](CCC(N)=O)NC(=O)[C@@H](CCCNC(=N)N)NC(=O)[C@H](CCCCNC(=N)N)NC(=O)COCCOCCNC(=O)COCCOCCNC(=O)CC[C@H](NC(=O)CCCCC(=O)O)C(=O)O | 4.7 h | 0.682 µM·h | 1.2 nM | 246 min | 4.1 nM | 0.0061 | 15% | 0.92 mL/min/kg | 9.1 L/h/kg | > 90% | 0.139 L/kg | 58% | 139 min | 76% | 1.98 µM·h
5 | CC(=O)N[C@@H](CCCCNC(=N)N)C(=O)N[C@H](CCCNC(=N)N)C(=O)N[C@@H](CCC(N)=O)C(=O)N[C@@H](CCCCNC(=N)N)C(=O)N1CCC[C@H]1C(=O)N[C@H](CCCNC(=N)N)C(=O)N(C)[C@@H](CC(C)C)C(=O)N[C@@H](CO)C(=O)N[C@@H](Cc1c[nH]cn1)C(=O)N[C@@H](CCCCN)C(=O)NCC(=O)N1[C@H](C(=O)N[C@@H](Cc2ccc(I)cc2)C(=O)N2CCC[C@H]2C(=O)N[C@H](Cc2ccc(-c3ccccc3)cc2)C(=O)O)C[C@@H]2CCCC[C@@H]21 |  | 0.073 µM·h |  |  | 1.95 nM | 0.179 | 41% | 10.1 mL/min/kg | 3.37 L/h/kg | 86% | 0.298 L/kg |  | 21.7 min | 45% | 
6 | CCCCCC(=O)N[C@@H](CCC(=O)NCCOCCOCC(=O)NCCOCCOCC(=O)N[C@@H](CCCCNC(=N)N)C(=O)N[C@H](CCCNC(=N)N)C(=O)N[C@@H](CCC(N)=O)C(=O)N[C@@H](CCCCNC(=N)N)C(=O)N1CCC[C@H]1C(=O)N[C@H](CCCNC(=N)N)C(=O)N(C)[C@@H](CC(C)C)C(=O)N[C@@H](CO)C(=O)N[C@@H](Cc1c[nH]cn1)C(=O)N[C@@H](CCCCN)C(=O)NCC(=O)N1[C@H](C(=O)N[C@@H](Cc2ccc(I)cc2)C(=O)N2CCC[C@H]2C(=O)N[C@H](Cc2ccc(-c3ccccc3)cc2)C(=O)O)C[C@@H]2CCCC[C@@H]21)C(=O)O | 4 h | 0.372 µM·h | 0.37 nM | 156 min | 2.31 nM | 0.0034 |  | 1.64 mL/min/kg | 29 L/h/kg |  | 0.203 L/kg | 56% | 139 min |  | 1.05 µM·h
7 | CC(C)C[C@@H](C(=O)N[C@@H](CO)C(=O)N[C@@H](Cc1c[nH]cn1)C(=O)N[C@@H](CCCNC(=N)N)C(=O)NCC(=O)N1[C@H](C(=O)N[C@@H](Cc2ccc(I)cc2)C(=O)N2CCC[C@H]2C(=O)N[C@H](Cc2ccc(-c3ccccc3)cc2)C(=O)O)C[C@@H]2CCCC[C@@H]21)N(C)C(=O)[C@@H](CCCNC(=N)N)NC(=O)[C@@H]1CCCN1C(=O)[C@H](CCCCNC(=N)N)NC(=O)[C@H](CCC(N)=O)NC(=O)[C@@H](CCCNC(=N)N)NC(=O)[C@H](CCCCNC(=N)N)NC(=O)COCCOCCNC(=O)COCCOCCNC(=O)CC[C@H](NC(=O)CCCCCCCCCCCCCCCCC(=O)O)C(=O)O | 24 h | 4.45 µM·h | 0.33 nM | > 1440 min | 117 nM | 0.0013 | 85% | 0.11 mL/min/kg | 5.1 L/h/kg | > 90% | 0.165 L/kg | > 36% | 1180 min | 86% | 9.58 µM·h
